In the experiment the test system is L1210 leukemia ip in BDF1 mice, survival T/C. Kind of experiment: NCI In Vivo Anticancer Drug Screen. Data for tumor model L1210 Leukemia (intraperitoneal) in B6D2F1 (BDF1) mice. Conditions: endpoint: mean survival time, higher = longer survival. An outline of the steps: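 Ratio derived from survival: compound-dosed mice over vehicle-dosed mice, all bearing a transplantable tumor.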

Where [1] appears, read: dose: 100.0 mg/kg/injection, schedule: Q01DX001 (ip), vehicle: other.
The mark [2] stands for this setting: dose: 200.0 mg/kg/injection, schedule: Q01DX001 (ip), vehicle: other.
Where [3] appears, read: dose: 400.0 mg/kg/injection, schedule: Q01DX001 (ip), vehicle: other.
[4] abbreviates: dose: 100.0 mg/kg/injection, schedule: Q01DX009 (ip), vehicle: saline with Tween-80.
Where [5] appears, read: dose: 100.0 mg/kg/injection, schedule: Q04DX003 (ip), vehicle: saline with Tween-80.
Where [6] appears, read: dose: 200.0 mg/kg/injection, schedule: Q01DX009 (ip), vehicle: saline with Tween-80.
[7] abbreviates: dose: 200.0 mg/kg/injection, schedule: Q04DX003 (ip), vehicle: saline with Tween-80.
[8] abbreviates: dose: 400.0 mg/kg/injection, schedule: Q01DX009 (ip), vehicle: saline with Tween-80.
[9] abbreviates: dose: 400.0 mg/kg/injection, schedule: Q04DX003 (ip), vehicle: saline with Tween-80.
Where [10] appears, read: dose: 100.0 mg/kg/injection, schedule: Q01DX009 (ip), vehicle: Klucel (hydroxypropylcellulose) (HPC).
Where [11] appears, read: dose: 200.0 mg/kg/injection, schedule: Q01DX009 (ip), vehicle: Klucel (hydroxypropylcellulose) (HPC).
[12] abbreviates: dose: 400.0 mg/kg/injection, schedule: Q01DX009 (ip), vehicle: Klucel (hydroxypropylcellulose) (HPC).
Where [13] appears, read: dose: 100.0 mg/kg/injection, schedule: Q04DX003 (ip), vehicle: Klucel (hydroxypropylcellulose) (HPC).
[14] abbreviates: dose: 200.0 mg/kg/injection, schedule: Q04DX003 (ip), vehicle: Klucel (hydroxypropylcellulose) (HPC).
Setting [15] is: dose: 400.0 mg/kg/injection, schedule: Q04DX003 (ip), vehicle: Klucel (hydroxypropylcellulose) (HPC).
The mark [16] stands for this setting: dose: 6.25 mg/kg/injection, schedule: Q01DX009 (ip), vehicle: saline.
Where [17] appears, read: dose: 1.56 mg/kg/injection, schedule: Q01DX009 (ip), vehicle: saline.

21 compounds from PubChem BioAssay AID248 (DTP/NCI, 2004) can be followed below.

The structures appear in SMILES notation. Several values for one entry are separate records, joined by “and”; a condition that tells them apart may be missing. Equal entries are not always repeated. Toxic doses and inconclusive results are not listed.

Turning to `NS(=O)(=O)c1ccc(N/N=c2\c(=O)c(=O)c3ccccc3c2=O)cc1`, the T/C runs as follows: under setting [1], 101 % of control; (dose: 100.0 mg/kg/injection, schedule: Q04DX003 (ip), vehicle: other) 95 % of control; under setting [2], 90 % of control; (dose: 200.0 mg/kg/injection, schedule: Q04DX003 (ip), vehicle: other) 108 % of control; under setting [3], 93 % of control; (dose: 400.0 mg/kg/injection, schedule: Q04DX003 (ip), vehicle: other) 90 % of control.
`Cc1ccc(C#N)cc1`: the T/C was 98 % of control under setting [4]; 94 % of control under setting [5]; 93 % of control under setting [6]; 92 % of control under setting [7]; 98 % of control under setting [8]; 96 % of control under setting [9].
In the case of `COc1ccc([N+](=O)[O-])cc1NC(=O)Nc1ccc(C(=O)OCC(C)C)cc1`, the T/C by setting is: under setting [10], 100 % of control; under setting [11], 100 % of control; under setting [12], 95 % of control.
For `O=[N+]([O-])c1ccccc1N=Cc1ccccc1O.[Co]`, the T/C reads like this: under setting [1], 98 % of control; under setting [2], 104 % of control.
As to `O=[N+]([O-])c1c(Cl)c(Cl)cc(Cl)c1Cl`, the T/C under setting [10] was 102 % of control and 92 % of control; the T/C under setting [13] was 93 % of control and 97 % of control; the T/C under setting [11] is 106 % of control and 91 % of control; the T/C under setting [14] was 101 % of control; the T/C under setting [12] is 95 % of control and 92 % of control; the T/C under setting [15] was 95 % of control and 100 % of control.
Turning to `CN(C)CCCN=Cc1cc([N+](=O)[O-])ccc1O.CN(C)CCCN=Cc1cc([N+](=O)[O-])ccc1O.[Ni+2]`, under setting [5], the T/C is 91 % of control.
For the compound `CC1=CC(=O)C(Sc2ccc(C)cc2)=CC1=O`, the T/C by setting is: (dose: 75.0 mg/kg/injection, schedule: Q01DX001 (ip), vehicle: other) 98 % of control; (dose: 150.0 mg/kg/injection, schedule: Q01DX001 (ip), vehicle: other) 93 % of control.
Turning to `CC(=O)N/N=C(/C)C(O)(c1ccccc1)c1ccccc1`, the T/C under setting [4] is 95 % of control; the T/C under setting [5] was 100 % of control; the T/C under setting [6] is 92 % of control; the T/C under setting [7] was 101 % of control; the T/C under setting [8] was 97 % of control; the T/C under setting [9] is 101 % of control.
Turning to `CCC/C(=N\Nc1ccc([N+](=O)[O-])cc1[N+](=O)[O-])c1cccc([N+](=O)[O-])c1`, the T/C was 93 % of control under setting [13], 92 % of control under setting [14] and 97 % of control under setting [15].
With `C(=N\Nc1nnc(N/N=C/C2CCCCC2)c2ccccc12)/C1CCCCC1`, under “dose: 50.0 mg/kg/injection, schedule: Q01DX001 (ip), vehicle: saline”, the T/C is 100 % of control.
In the case of `Nc1cc2c(cc1Br)-c1ccc([N+](=O)[O-])cc1/C2=N\O`, the T/C by setting is: (dose: 100.0 mg/kg/injection, schedule: Q01DX001 (ip), vehicle: carboxymethylcellulose (CMC)) 113 % of control; (dose: 200.0 mg/kg/injection, schedule: Q01DX001 (ip), vehicle: carboxymethylcellulose (CMC)) 103 % of control; (dose: 400.0 mg/kg/injection, schedule: Q01DX001 (ip), vehicle: carboxymethylcellulose (CMC)) 97 % of control.
As for `COc1ncnc2c1c(C#N)cn2C1OC(CO)C(O)C1O` (stereo not drawn), the T/C is 124 % of control under setting [16]; 119 % of control (dose: 50.0 mg/kg/injection, schedule: Q01DX009 (ip), vehicle: saline); 169 % of control (dose: 100.0 mg/kg/injection, schedule: Q01DX009 (ip), vehicle: saline); 93 % of control (dose: 200.0 mg/kg/injection, schedule: Q01DX005 (ip), vehicle: saline).
Turning to `O=C(Cl)CNS(=O)(=O)c1ccccc1`, the T/C under setting [1] is 106 % of control, the T/C under setting [2] is 108 % of control and the T/C under setting [3] was 111 % of control.
As for `c1ccc([Se+](c2ccccc2)c2ccccc2)cc1`, the T/C by setting is: (dose: 0.22 mg/kg/injection, schedule: Q01DX009 (ip), vehicle: Klucel (hydroxypropylcellulose) (HPC)) 98 % of control; (dose: 0.39 mg/kg/injection, schedule: Q01DX009 (ip), vehicle: saline) 94 % of control; (dose: 0.45 mg/kg/injection, schedule: Q01DX009 (ip), vehicle: Klucel (hydroxypropylcellulose) (HPC)) 110 % of control; (dose: 0.78 mg/kg/injection, schedule: Q01DX009 (ip), vehicle: saline) 97 % of control; under setting [17], 87 % of control.
For the compound `O=C(CCc1ccc(O)cc1)c1c(O)cc(O)cc1O`, the T/C (dose: 100.0 mg/kg/injection, schedule: Q01DX001 (ip), vehicle: saline) was 96 % of control; the T/C (dose: 200.0 mg/kg/injection, schedule: Q01DX001 (ip), vehicle: saline) was 94 % of control; the T/C (dose: 400.0 mg/kg/injection, schedule: Q01DX001 (ip), vehicle: saline) is 92 % of control.
Consider `c1ccc(CCN2CCCCC2)nc1`, for which the T/C was 94 % of control under setting [17]; 93 % of control (dose: 3.13 mg/kg/injection, schedule: Q01DX009 (ip), vehicle: saline); 89 % of control under setting [16].
`O=C1OC(c2ccccc2)=C/C1=C/c1ccc(Cl)cc1`: the T/C is 88 % of control (dose: 25.0 mg/kg/injection, schedule: Q04DX003 (ip), vehicle: alcohol); 90 % of control (dose: 50.0 mg/kg/injection, schedule: Q04DX003 (ip), vehicle: alcohol); 86 % of control (dose: 100.0 mg/kg/injection, schedule: Q01DX001 (ip), vehicle: alcohol); 87 % of control (dose: 100.0 mg/kg/injection, schedule: Q04DX003 (ip), vehicle: alcohol); 89 % of control (dose: 150.0 mg/kg/injection, schedule: Q01DX009 (ip), vehicle: alcohol); 87 % of control (dose: 150.0 mg/kg/injection, schedule: Q04DX003 (ip), vehicle: alcohol). The T/C is 86 % of control (dose: 225.0 mg/kg/injection, schedule: Q01DX009 (ip), vehicle: alcohol); 91 % of control (dose: 225.0 mg/kg/injection, schedule: Q04DX003 (ip), vehicle: alcohol); 107 % of control (dose: 335.0 mg/kg/injection, schedule: Q01DX009 (ip), vehicle: alcohol); 90 % of control (dose: 335.0 mg/kg/injection, schedule: Q04DX003 (ip), vehicle: alcohol).
Regarding `CCOC(=O)c1ccc(OC(=O)Nc2ccc(Cl)c([N+](=O)[O-])c2)cc1`, the T/C (dose: 50.0 mg/kg/injection, schedule: Q01DX009 (ip), vehicle: Klucel (hydroxypropylcellulose) (HPC)) was 94 % of control; the T/C under setting [10] is 90 % of control; the T/C under setting [13] is 100 % of control; the T/C under setting [11] was 92 % of control; the T/C under setting [14] is 94 % of control.
Turning to `CCCCCCCC/C=C\CCCCCCCC(=O)OCCCCCCCCCCCCCCC`, the T/C is, setting by setting: (dose: 100.0 mg/kg/injection, schedule: Q01DX009 (ip), vehicle: other) 96 % of control; (dose: 200.0 mg/kg/injection, schedule: Q01DX009 (ip), vehicle: other) 96 % of control; (dose: 400.0 mg/kg/injection, schedule: Q01DX009 (ip), vehicle: other) 96 % of control.
As to `Cc1nc(N)ncc1CCC1OCCO1`, the T/C by setting is: (dose: 25.0 mg/kg/injection, schedule: Q04DX002 (ip), vehicle: saline) 91 % of control; (dose: 50.0 mg/kg/injection, schedule: Q04DX002 (ip), vehicle: saline) 100 % of control; (dose: 100.0 mg/kg/injection, schedule: Q04DX002 (ip), vehicle: Klucel (hydroxypropylcellulose) (HPC)) 175 % of control; (dose: 100.0 mg/kg/injection, schedule: Q04DX002 (ip), vehicle: saline) 107 % of control; (dose: 200.0 mg/kg/injection, schedule: Q04DX002 (ip), vehicle: saline) 103 % of control.
For the compound `CC(C)CC(CC(C)C)NCC(C)OC(=O)C(c1ccccc1)c1ccccc1` (stereo not drawn), the T/C (dose: 75.0 mg/kg/injection, schedule: Q01DX001 (ip), vehicle: saline) is 102 % of control; the T/C (dose: 150.0 mg/kg/injection, schedule: Q01DX001 (ip), vehicle: saline) is 98 % of control; the T/C (dose: 300.0 mg/kg/injection, schedule: Q01DX001 (ip), vehicle: saline) is 102 % of control.
